Holding throughout (format): functional
The subject of assay [1] is Pseudoperonospora cubensis. Briefly: Fungicidal activity against Pseudoperonospora cubensis assessed as cucumber downy mildew disease control at 125 ppm foliar application 24 hr after inoculation by preventive manner.
In assay [2] the test system is Botrytis cinerea. Briefly: Fungicidal activity against Botryotinia fuckeliana assessed as cucumber gray mold disease control at 125 ppm foliar application 24 hr before inoculation by preventive manner.
Assay [3] relates to Podosphaera fuliginea. Briefly: Fungicidal activity against Podosphaera fuligineas assessed as cucumber […] mildew disease control at 7.8 ppm foliar application 24 hr after inoculation by curative manner.
Assay [4] concerns Pseudoperonospora cubensis. Briefly: Fungicidal activity against Pseudoperonospora cubensis assessed as cucumber downy mildew disease control at 7.8 ppm foliar application 24 hr after inoculation by curative manner.
Assay [5] relates to Botrytis cinerea. The experiment in a line: Fungicidal activity against Botryotinia fuckeliana assessed as cucumber gray mold disease control at 125 ppm foliar application 24 hr after inoculation by curative manner.
For assay [6], the system named is Podosphaera fuliginea. Briefly: Fungicidal activity against Podosphaera fuligineas assessed as cucumber […] mildew disease control at 7.8 ppm foliar application 24 hr before inoculation by preventive manner.
In assay [7] the test system is Blumeria graminis f. sp. tritici. Briefly: Fungicidal activity against Blumeria graminis f. sp. tritici assessed as wheat powdery mildew disease control at 125 ppm foliar application for 24 hr after inoculation by curative manner.
Assay [8] concerns Pyricularia oryzae. Briefly: Fungicidal activity against Magnaporthe oryzae assessed as rice blast disease control at 125 ppm foliar application for 24 hr after inoculation by curative manner.
Assay [9] concerns Pyricularia oryzae. Briefly: Fungicidal activity against Magnaporthe oryzae assessed as rice blast disease control at 125 ppm foliar application for 24 hr before inoculation by preventive manner.
Assay [10] deals with Pseudoperonospora cubensis. The experiment in a line: Fungicidal activity against Pseudoperonospora cubensis assessed as cucumber downy mildew disease control at 31.3 ppm foliar application 24 hr after inoculation by preventive manner.
Assay [11] relates to Botrytis cinerea. Briefly: Fungicidal activity against Botryotinia fuckeliana assessed as cucumber gray mold disease control at 7.8 ppm foliar application 24 hr before inoculation by preventive manner.
In assay [12] the test system is Pseudoperonospora cubensis. The experiment in a line: Fungicidal activity against Pseudoperonospora cubensis assessed as cucumber downy mildew disease control at 2 ppm foliar application 24 hr after inoculation by curative manner.
The subject of assay [13] is Podosphaera fuliginea. The experiment in a line: Fungicidal activity against Podosphaera fuligineas assessed as cucumber […] mildew disease control at 2 ppm foliar application 24 hr after inoculation by curative manner.
Assay [14] concerns Podosphaera fuliginea. Briefly: Fungicidal activity against Podosphaera fuligineas assessed as cucumber […] mildew disease control at 2 ppm foliar application 24 hr before inoculation by preventive manner.
Assay [15] has as its system Blumeria graminis f. sp. tritici. Briefly: Fungicidal activity against Blumeria graminis f. sp. tritici assessed as wheat powdery mildew disease control at 7.8 ppm foliar application for 24 hr after inoculation by curative manner.
For assay [16] the test system is unchanged. Briefly: Fungicidal activity against Blumeria graminis f. sp. tritici assessed as wheat powdery mildew disease control at 125 ppm foliar application for 24 hr before inoculation by preventive manner.
For assay [17], the system named is Podosphaera fuliginea. Briefly: Fungicidal activity against Podosphaera fuligineas assessed as cucumber […] mildew disease control at 31.3 ppm foliar application 24 hr after inoculation by curative manner.
Assay [18] has as its system Podosphaera fuliginea. Briefly: Fungicidal activity against Podosphaera fuligineas assessed as cucumber […] mildew disease control at 31.3 ppm foliar application 24 hr before inoculation by preventive manner.
Assay [19] relates to Podosphaera fuliginea. Briefly: Fungicidal activity against Podosphaera fuligineas assessed as cucumber […] mildew disease control at 125 ppm foliar application 24 hr after inoculation by curative manner.
Assay [20] relates to Podosphaera fuliginea. The experiment in a line: Fungicidal activity against Podosphaera fuligineas assessed as cucumber […] mildew disease control at 125 ppm foliar application 24 hr before inoculation by preventive manner.
Assay [21] concerns Botrytis cinerea. Briefly: Fungicidal activity against Botryotinia fuckeliana assessed as cucumber gray mold disease control at 31.3 ppm foliar application 24 hr before inoculation by preventive manner.
The subject of assay [22] is Blumeria graminis f. sp. tritici. The experiment in a line: Fungicidal activity against Blumeria graminis f. sp. tritici assessed as wheat powdery mildew disease control at 2 ppm foliar application for 24 hr before inoculation by preventive manner.
For assay [23], the system named is Pyricularia oryzae. Briefly: Fungicidal activity against Magnaporthe oryzae assessed as rice blast disease control at 7.8 ppm foliar application for 24 hr after inoculation by curative manner.
Assay [24] deals with Pyricularia oryzae. The experiment in a line: Fungicidal activity against Magnaporthe oryzae assessed as rice blast disease control at 31.3 ppm foliar application for 24 hr before inoculation by preventive manner.
The subject of assay [25] is Pseudoperonospora cubensis. Briefly: Fungicidal activity against Pseudoperonospora cubensis assessed as cucumber downy mildew disease control at 125 ppm foliar application 24 hr after inoculation by curative manner.
The test system of assay [26] is Botrytis cinerea. Briefly: Fungicidal activity against Botryotinia fuckeliana assessed as cucumber gray mold disease control at 7.8 ppm foliar application 24 hr after inoculation by curative manner.
For assay [27], the system named is Botrytis cinerea. The experiment in a line: Fungicidal activity against Botryotinia fuckeliana assessed as cucumber gray mold disease control at 2 ppm foliar application 24 hr after inoculation by curative manner.
Assay [28] concerns Blumeria graminis f. sp. tritici. The experiment in a line: Fungicidal activity against Blumeria graminis f. sp. tritici assessed as wheat powdery mildew disease control at 7.8 ppm foliar application for 24 hr before inoculation by preventive manner.
Assay [29] has as its system Pyricularia oryzae. The experiment in a line: Fungicidal activity against Magnaporthe oryzae assessed as rice blast disease control at 31.3 ppm foliar application for 24 hr after inoculation by curative manner.
For assay [30], the system named is Blumeria graminis f. sp. tritici. Briefly: Fungicidal activity against Blumeria graminis f. sp. tritici assessed as wheat powdery mildew disease control at 31.3 ppm foliar application for 24 hr after inoculation by curative manner.

Take `CNC(=O)/C(=N/OC)c1ccccc1COc1ccc(C(F)(F)F)c(NC)n1`: the Activity (in assay [1]; in the assay with Botrytis cinerea [2]; with Podosphaera fuliginea [3]; in assay [4]; with Botrytis cinerea [5]; with Podosphaera fuliginea [6]) was 90% each time. The Activity in [7] was 90%; in the assay on Pyricularia oryzae [8] it was under 90%; with Pyricularia oryzae [9], under 90%.
For `CNC(=O)/C(=N/OC)c1ccccc1COc1ccc(C(F)(F)F)c(OC)n1`, the Activity (in assay [10]; in the assay on Botrytis cinerea [11]; in [12]; in the assay with Botrytis cinerea [5]; in the assay on Podosphaera fuliginea [13]; in the assay on Podosphaera fuliginea [14]) was 90% in each case. For the same compound, the Activity (in [15]; in assay [16]; in the assay with Pyricularia oryzae [8]; with Pyricularia oryzae [9]) was 90% each time.
On to `CNC(=O)/C(=N/OC)c1ccccc1COc1cccc(SC)n1`, for which the Activity in assay [1] is 90%; in the assay on Botrytis cinerea [2] it was 90%; with Podosphaera fuliginea [17], 90%; in assay [4], 90%; in the assay on Botrytis cinerea [5], under 90%; in the assay with Podosphaera fuliginea [18] it was 90%. In addition, the Activity in assay [7] was under 90%; in assay [16], 90%; in the assay with Pyricularia oryzae [9], under 90%.
With `CNC(=O)/C(=N/OC)c1ccccc1COc1cc(C(F)(F)F)cc(Cl)n1`, the Activity in assay [1] is on record as under 90%; with Botrytis cinerea [2] it was under 90%; in the assay on Podosphaera fuliginea [19] it was 90%; in assay [4], 90%; with Botrytis cinerea [5], under 90%; with Podosphaera fuliginea [20], 90%. The Activity in assay [7] is recorded as 90%; in assay [16] it was 90%; in the assay with Pyricularia oryzae [8], under 90%; in the assay with Pyricularia oryzae [9], 90%.
For the compound `CNC(=O)/C(=N/OC)c1ccccc1COc1cccc(C(F)(F)F)n1`, the Activity (in assay [10]; in the assay on Botrytis cinerea [21]; in the assay with Podosphaera fuliginea [3]; in [12]; in the assay with Botrytis cinerea [5]; with Podosphaera fuliginea [6]) was 90% in each case. Besides, the Activity (in assay [15]; in assay [22]; with Pyricularia oryzae [23]; in the assay on Pyricularia oryzae [24]) was 90% in each case.
In the case of `CNC(=O)/C(=N/OC)c1ccccc1COc1cccnc1Cl`, the Activity (with Botrytis cinerea [21]; in the assay on Botrytis cinerea [11]; with Podosphaera fuliginea [17]; in assay [25]; in the assay with Botrytis cinerea [26]; with Podosphaera fuliginea [18]) was 90% throughout. For the same compound, the Activity (in assay [7]; in [16]; in the assay on Pyricularia oryzae [9]) was under 90% in each case.
Take `CNC(=O)/C(=N/OC)c1ccccc1COc1nc(Cl)c(Cl)c(C(F)(F)F)c1Cl`: the Activity in the assay on Podosphaera fuliginea [19] is 90%; in [25], 90%; in the assay on Botrytis cinerea [5], under 90%; in the assay with Podosphaera fuliginea [20] it was 90%; in assay [7] it was under 90%; in assay [16], under 90%. Moreover, the Activity with Pyricularia oryzae [9] was under 90%.
`CNC(=O)/C(=N/OC)c1ccccc1COc1ccc(C(F)(F)F)cn1`: the Activity (in assay [10]; with Botrytis cinerea [27]; with Botrytis cinerea [11]; with Podosphaera fuliginea [3]; in assay [4]; in the assay with Podosphaera fuliginea [18]) was 90% in each case. The Activity (in assay [15]; in assay [28]; in the assay with Pyricularia oryzae [29]; in the assay on Pyricularia oryzae [24]) was 90% throughout.
In the case of `CNC(=O)/C(=N\OC)c1ccccc1COc1ccccn1`, the Activity in the assay with Botrytis cinerea [2] is given as under 90%; in the assay on Podosphaera fuliginea [19] it was under 90%; in assay [25] it was under 90%; in the assay on Podosphaera fuliginea [20], under 90%; in assay [7], under 90%; in [16] it was 90%. The Activity with Pyricularia oryzae [9] is under 90%.
Take `CNC(=O)/C(=N/OC)c1ccccc1COc1cc(C(F)(F)F)nc(C(F)(F)F)c1`: the Activity is reported as under 90% in assay [1]; under 90% in the assay on Botrytis cinerea [2]; under 90% in the assay with Podosphaera fuliginea [19]; 90% in [25]; under 90% with Podosphaera fuliginea [20]; under 90% in assay [7]. Besides, the Activity (in assay [16]; in the assay with Pyricularia oryzae [9]) was under 90% in each case.
Consider `CNC(=O)/C(=N/OC)c1ccccc1COc1cccc(Br)n1`, for which the Activity (in [1]; in the assay on Botrytis cinerea [21]; in the assay on Podosphaera fuliginea [3]; in assay [4]; in the assay with Botrytis cinerea [26]; in assay [30]) was 90% each time. The Activity (in the assay with Podosphaera fuliginea [18]; in assay [22]; with Pyricularia oryzae [23]; in the assay on Pyricularia oryzae [24]) was 90% in each case.
Take `CNC(=O)/C(=N/OC)c1ccccc1COc1nc(Cl)c(C(F)(F)F)cc1C(F)(F)F`: the Activity in the assay with Botrytis cinerea [21] is reported as 90%; in the assay on Podosphaera fuliginea [3], 90%; in [25], under 90%; in assay [12], 90%; with Botrytis cinerea [5], 90%; with Podosphaera fuliginea [14], 90%. Also, the Activity in assay [15] is listed as 90%; in assay [22] it was 90%; in the assay on Pyricularia oryzae [8], under 90%; with Pyricularia oryzae [9] it was 90%.
Regarding `CNC(=O)/C(=N/OC)c1ccccc1COc1cc(C(F)(F)F)ccn1`, the Activity in [1] is given as under 90%; in the assay with Botrytis cinerea [2], under 90%; in the assay with Podosphaera fuliginea [19] it was 90%; in assay [4], 90%; in the assay on Botrytis cinerea [5] it was under 90%; in [30], 90%. In addition, the Activity (in the assay on Podosphaera fuliginea [20]; in assay [16]; in the assay with Pyricularia oryzae [29]; in the assay on Pyricularia oryzae [24]) was 90% throughout.
Take `CNC(=O)/C(=N/OC)c1ccccc1COc1nc(OC(C)C)ccc1C(F)(F)F`: the Activity in assay [1] is under 90%; in the assay with Botrytis cinerea [2] it was 90%; with Podosphaera fuliginea [3], 90%; in assay [4] it was 90%; with Botrytis cinerea [5] it was under 90%; in assay [30] it was 90%. Further, the Activity (with Podosphaera fuliginea [6]; in [28]; in the assay with Pyricularia oryzae [29]; in the assay on Pyricularia oryzae [24]) was 90% each time.
For `CNC(=O)/C(=N/OC)c1ccccc1COc1ncccc1Cl`, the Activity (in assay [10]; with Botrytis cinerea [27]; in the assay with Botrytis cinerea [21]; in the assay on Podosphaera fuliginea [3]; in assay [4]; in the assay on Podosphaera fuliginea [6]) was 90% each time. In addition, the Activity (in [15]; in assay [28]; in the assay on Pyricularia oryzae [23]; with Pyricularia oryzae [24]) was 90% throughout.
`CNC(=O)/C(=N/OC)c1ccccc1COc1cccc(Cl)n1`: the Activity (in assay [10]; in the assay on Botrytis cinerea [11]; in the assay with Podosphaera fuliginea [3]; in assay [12]; in the assay on Botrytis cinerea [26]; in the assay with Podosphaera fuliginea [6]) was 90% each time. Also, the Activity (in assay [15]; in assay [22]; in the assay on Pyricularia oryzae [29]; in the assay with Pyricularia oryzae [24]) was 90% throughout.

The values above are taken from ChEMBL document CHEMBL3046966, “Structure and Fungicidal Activities of 2-Methoxyimino-N-methyl-2-[2-(substituted pyridyloxymethyl)phenyl]acetamide Derivatives” (1998).
